Measurements published in the supplement of paper PMC8671470.

Columns and labels:
Conditions in all cases: 72 h
[1] = system: HEL
How it was run: (§1)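 Fifteen myeloid leukaemia cell lines were seeded in RPMI 1640 at densities titrated to the linear growth range and placed in 384-well plates with acoustically pre-printed compounds at five tenfold doses from 1 to 10,000 nM, in duplicate. After 72 h at 37 °C with 5% CO2, luminescent ATP viability was normalised to vehicle and to a positive control at 10 µM, and curves were fitted with a four-parameter log-logistic model. The IC50 was obtained from these fits.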

[2] = system: K-562
How it was run: as §1

[3] = system: MOLM-13
How it was run: as §1

[4] = system: HL-60
How it was run: as §1

[5] = system: KU-812
How it was run: as §1

[6] = system: SHI-1
How it was run: as §1

[7] = system: KG-1
How it was run: as §1

[8] = system: NOMO-1
How it was run: as §1

[9] = system: ML-2
How it was run: as §1

[10] = system: MV4-11
How it was run: as §1

[11] = system: LAMA-84
How it was run: as §1

[12] = system: BV-173
How it was run: as §1

[13] = system: KCL-22
How it was run: as §1

[14] = system: Mono-Mac-6
How it was run: as §1

[15] = system: THP-1
How it was run: as §1

[16] = system: HEL; test: cell viability (% survival relative to DMSO control, bortezomib = 0%); higher = less cytotoxic
How it was run: (§2)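 Seeding density for each of the 10 AML and 5 CML cell lines was titrated to the linear growth range. Cells went into 384-well plates pre-printed in duplicate with compounds at 1, 10, 100, 1000 or 10000 nM and were held for 72 h at 37 °C with 5% CO2. CellTiter-Glo luminescence then provided the readout. Percent survival is expressed relative to vehicle at 100% and a 10 µM positive control at 0%, averaged over duplicates.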

[17] = system: K-562; test: as above
How it was run: as §2

[18] = system: MOLM-13; test: as above
How it was run: as §2

[19] = system: HL-60; test: as above
How it was run: as §2

[20] = system: KU-812; test: as above
How it was run: as §2

[21] = system: SHI-1; test: as above
How it was run: as §2

[22] = system: KG-1; test: as above
How it was run: as §2

[23] = system: NOMO-1; test: as above
How it was run: as §2

[24] = system: ML-2; test: as above
How it was run: as §2

[25] = system: MV4-11; test: as above
How it was run: as §2

[26] = system: LAMA-84; test: as above
How it was run: as §2

[27] = system: BV-173; test: as above
How it was run: as §2

[28] = system: KCL-22; test: as above
How it was run: as §2

[29] = system: Mono-Mac-6; test: as above
How it was run: as §2

[30] = system: THP-1; test: as above
How it was run: as §2

OC[C@H]1O[C@@H](n2cnc3c2N=CNC[C@H]3O)C[C@@H]1O [Pentostatin]
Conditions | IC50 (cell viability) [µM]
[1] | > 10
[2] | > 10
[3] | > 10
[4] | > 10
[5] | > 10
[6] | > 10
[7] | > 10
[8] | > 10
[9] | > 10
[10] | > 10
[11] | > 10
[12] | > 10
[13] | > 10
[14] | > 10
[15] | > 10

cell viability [%]
Conditions | 1 nM | 10 nM | 100 nM | 1000 nM | 10000 nM
[16] | 105 | 89.4 | 102 | 103 | 142
[17] | 95.3 | 106 | 111 | 99.2 | 107
[18] | 86.9 | 99.7 | 101 | 110 | 114
[19] | 99.5 | 99.7 | 98.2 | 100 | 118
[20] | 96.4 | 99.5 | 112 | 95.1 | 115
[21] | 93.9 | 100 | 94.5 | 100 | 111
[22] | 101 | 104 | 97.9 | 108 | 97.8
[23] | 105 | 94.3 | 113 | 98.8 | 106
[24] | 99.2 | 86.6 | 99.1 | 108 | 123
[25] | 95.8 | 104 | 107 | 105 | 103
[26] | 102 | 99.6 | 111 | 101 | 108
[27] | 102 | 97.4 | 117 | 94.5 | 101
[28] | 99.1 | 89.9 | 101 | 94.3 | 105
[29] | 104 | 94.2 | 105 | 91.9 | 99.3
[30] | 102 | 93.5 | 111 | 98.3 | 103

Cc1c(Cl)cccc1S(=O)(=O)Nc1nc(CC(=O)N2CCN(C)CC2)cs1 [BVT-2733]
Conditions | IC50 (cell viability) [µM]
[1] | > 10
[2] | > 10
[3] | > 10
[4] | > 10
[5] | > 10
[6] | > 10
[7] | > 10
[8] | > 10
[9] | > 10
[10] | > 10
[11] | > 10
[12] | > 10
[13] | > 10
[14] | > 10
[15] | > 10

cell viability [%]
Conditions | 1 nM | 10 nM | 100 nM | 1000 nM | 10000 nM
[16] | 106 | 82.9 | 96.3 | 108 | 101
[17] | 98 | 83.5 | 87.1 | 104 | 102
[18] | 99.7 | 89.1 | 97.8 | 110 | 96.4
[19] | 99.9 | 93.4 | 78.9 | 122 | 93.5
[20] | 107 | 95.4 | 96.6 | 95.9 | 86.4
[21] | 110 | 101 | 105 | 111 | 104
[22] | 102 | 92.8 | 94.2 | 98.2 | 105
[23] | 105 | 97.6 | 99.1 | 99.1 | 95.4
[24] | 108 | 91.1 | 92.6 | 108 | 99.6
[25] | 107 | 95.1 | 88.3 | 108 | 112
[26] | 101 | 93.4 | 96.9 | 105 | 99.9
[27] | 102 | 103 | 94.8 | 93.3 | 88.5
[28] | 114 | 83.6 | 97.9 | 98.2 | 98.1
[29] | 107 | 88 | 107 | 114 | 99.6
[30] | 107 | 91 | 100 | 97 | 92.9

CN1CCN(CCCN2c3ccccc3Sc3ccc(C(F)(F)F)cc32)CC1 [Trifluoperazine]
Conditions | IC50 (cell viability) [µM]
[1] | > 10
[2] | 2.91
[3] | > 10
[4] | 5.18
[5] | > 10
[6] | > 10
[7] | 3.54
[8] | > 10
[9] | 9.55
[10] | 9.52
[11] | > 10
[12] | > 10
[13] | 3.49
[14] | > 10
[15] | > 10

cell viability [%]
Conditions | 1 nM | 10 nM | 100 nM | 1000 nM | 10000 nM
[16] | 110 | 82.7 | 99.9 | 86.5 | 65.1
[17] | 113 | 89.5 | 85.1 | 92 | 0.986
[18] | 105 | 85.4 | 101 | 93.2 | 57.7
[19] | 100 | 101 | 88.6 | 95.3 | 20.2
[20] | 101 | 94 | 97.8 | 86.3 | 65.6
[21] | 113 | 96.2 | 103 | 92.1 | 64.4
[22] | 106 | 103 | 100 | 79.8 | 42.8
[23] | 104 | 108 | 101 | 88.3 | 81
[24] | 102 | 102 | 103 | 95.9 | 48.4
[25] | 99.5 | 79.6 | 93.8 | 89.9 | 50.3
[26] | 101 | 100 | 98.8 | 83 | 76.5
[27] | 97.3 | 94.8 | 103 | 97.6 | 55.3
[28] | 108 | 109 | 115 | 78.1 | 42.1
[29] | 108 | 112 | 90.4 | 83.2 | 66.6
[30] | 97.9 | 102 | 100 | 87.6 | 72.4

Cc1cc(C(=O)NNCc2ccccc2)no1 [Isocarboxazid]
Conditions | IC50 (cell viability) [µM]
[1] | > 10
[2] | > 10
[3] | > 10
[4] | > 10
[5] | > 10
[6] | > 10
[7] | > 10
[8] | > 10
[9] | > 10
[10] | > 10
[11] | > 10
[12] | > 10
[13] | > 10
[14] | > 10
[15] | > 10

cell viability [%]
Conditions | 1 nM | 10 nM | 100 nM | 1000 nM | 10000 nM
[16] | 112 | 87.8 | 111 | 92.6 | 103
[17] | 116 | 91.5 | 88.5 | 99.6 | 107
[18] | 104 | 96.3 | 103 | 106 | 96.6
[19] | 107 | 90.1 | 106 | 122 | 102
[20] | 96.2 | 99.6 | 93.8 | 93.9 | 100
[21] | 101 | 99.9 | 98.4 | 99.1 | 95.2
[22] | 96.5 | 109 | 98.5 | 108 | 91.1
[23] | 105 | 103 | 109 | 112 | 92
[24] | 95 | 101 | 101 | 90.4 | 85.4
[25] | 107 | 95 | 97.5 | 81.4 | 80.4
[26] | 98.9 | 97.9 | 99.7 | 95.5 | 95.8
[27] | 99.1 | 101 | 100 | 117 | 80.7
[28] | 105 | 91.3 | 94.3 | 98.3 | 65.6
[29] | 94.1 | 102 | 104 | 107 | 80.8
[30] | 97.8 | 102 | 110 | 97.4 | 86.7

Cn1cc(-c2ccncc2)c(-c2ccc(OCc3ccc4ccccc4n3)cc2)n1
Conditions | IC50 (cell viability) [µM]
[1] | 9.86
[2] | > 10
[3] | 1.74
[4] | > 10
[5] | 8.42
[6] | > 10
[7] | > 10
[8] | > 10
[9] | > 10
[10] | 2.09
[11] | > 10
[12] | > 10
[13] | > 10
[14] | > 10
[15] | > 10

cell viability [%]
Conditions | 1 nM | 10 nM | 100 nM | 1000 nM | 10000 nM
[16] | 93 | 119 | 96.9 | 99.8 | 59.4
[17] | 99.5 | 109 | 106 | 98.5 | 57.9
[18] | 123 | 99.5 | 95.9 | 69.4 | 6.76
[19] | 117 | 92.7 | 103 | 136 | 64.2
[20] | 95.4 | 103 | 93.3 | 92.4 | 43.1
[21] | 99 | 104 | 107 | 104 | 93.7
[22] | 97.7 | 96.7 | 110 | 102 | 87.4
[23] | 103 | 98.8 | 97 | 101 | 93.9
[24] | 101 | 94.6 | 98.3 | 103 | 69.3
[25] | 101 | 118 | 91.5 | 76.5 | 7.29
[26] | 104 | 114 | 98.4 | 95.8 | 60
[27] | 93.5 | 97.7 | 93.6 | 90.2 | 57.3
[28] | 116 | 96 | 96.4 | 102 | 73.7
[29] | 92.7 | 87.4 | 89.5 | 90.5 | 52.3
[30] | 92.7 | 101 | 100 | 104 | 92
